How the values were obtained:
Assay in all cases: relative viability (nuclei count vs DMSO), 5 days (fraction); higher = more cells survive
[1] = compound: COc1cc2nccc(Oc3ccc(NC(=O)C4(C(=O)Nc5ccc(F)cc5)CC4)cc3)c2cc1OC [Cabozantinib] + O=C(CCCCCCC(=O)Nc1ccccc1)NO [Vorinostat] (partner 1 µM)
In short: (§1)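 A single step with final 0.05% Triton X-100, 1% formaldehyde and 1 ug/ml Hoechst fixed the cells and stained nuclei 5 days after treatment. Lung cancer cell lines in 1536-well plates had been treated by pin tool the day after seeding with one drug alone or a fixed anchor-drug dose plus five library-drug doses (not always all listed) in √10 steps, and nuclei were counted on 4× images. Relative viability is the ratio of nuclei in treated wells to nuclei in vehicle wells, taken as the median of duplicate plates.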

Zosuquidar + Dasatinib = compound: O[C@@H](COc1cccc2ncccc12)CN1CCN([C@@H]2c3ccccc3[C@@H]3[C@H](c4ccccc42)C3(F)F)CC1 [Zosuquidar] + Cc1nc(Nc2ncc(C(=O)Nc3c(C)cccc3Cl)s2)cc(N2CCN(CCO)CC2)n1 [Dasatinib] (partner 0.075 µM)
In short: as §1

Kobe2602 + Alpelisib = compound: C1=CC(=CC=C1NC(=S)NNC2=C(C=C(C=C2[N+](=O)[O-])C(F)(F)F)[N+](=O)[O-])F [Kobe2602] + Cc1nc(NC(=O)N2CCC[C@H]2C(N)=O)sc1-c1ccnc(C(C)(C)C(F)(F)F)c1 [Alpelisib] (partner 2 µM)
In short: as §1

[2] = compound: COc1cc2nccc(Oc3ccc(NC(=O)C4(C(=O)Nc5ccc(F)cc5)CC4)cc3)c2cc1OC [Cabozantinib] + CC(=O)Nc1cccc(-n2c(=O)n(C3CC3)c(=O)c3c(Nc4ccc(I)cc4F)n(C)c(=O)c(C)c32)c1 [Trametinib] (partner 0.02 µM)
In short: as §1

Cell Line	relative viability ([1]; first compound 0.02 µM)	relative viability ([1]; first compound 0.06325 µM)	relative viability ([1]; first compound 0.2 µM)	relative viability ([1]; first compound 0.6325 µM)	relative viability ([1]; first compound 2 µM)	relative viability (Zosuquidar + Dasatinib; first compound 0.01 µM)	relative viability (Zosuquidar + Dasatinib; first compound 0.03162 µM)	relative viability (Zosuquidar + Dasatinib; first compound 0.1 µM)	relative viability (Zosuquidar + Dasatinib; first compound 0.3162 µM)	relative viability (Zosuquidar + Dasatinib; first compound 1 µM)	relative viability (Kobe2602 + Alpelisib; first compound 0.2 µM)	relative viability (Kobe2602 + Alpelisib; first compound 0.6325 µM)	relative viability (Kobe2602 + Alpelisib; first compound 2 µM)	relative viability (Kobe2602 + Alpelisib; first compound 6.325 µM)	relative viability (Kobe2602 + Alpelisib; first compound 20 µM)	relative viability ([2]; first compound 0.02 µM)	relative viability ([2]; first compound 0.06325 µM)	relative viability ([2]; first compound 0.2 µM)	relative viability ([2]; first compound 0.6325 µM)	relative viability ([2]; first compound 2 µM)
NCI-H1437	0.931	0.984	0.925	0.809	0.715	0.404	0.398	0.457	0.715	0.346	0.938	1.01	0.914	0.956	0.938	0.571	0.498	0.501	0.598	0.55
EKVX	0.725	0.868	–	0.708	0.84	0.694	0.38	0.558	0.657	0.488	0.886	0.852	0.826	0.913	0.925	0.377	0.406	0.249	0.409	0.351
NCI-H596	0.628	0.812	0.677	1.5	0.6	0.584	–	0.715	0.623	0.618	0.489	0.438	0.46	0.453	0.415	0.94	0.941	0.797	0.779	0.78
NCI-H1993	0.553	0.723	0.63	0.64	0.831	0.66	0.507	0.501	0.564	0.654	0.67	0.844	0.591	0.669	0.666	0.508	0.531	0.526	0.436	0.571
HCC-78	–	0.415	0.394	0.344	0.295	0.553	0.386	–	0.331	0.254	0.359	0.359	–	0.391	0.445	–	0.515	0.412	0.318	0.321
NCI-H2087	0.752	0.781	0.563	0.49	0.715	0.773	–	0.668	0.91	0.919	1.27	1.08	1.09	1.11	1.03	0.166	0.258	0.216	0.195	0.209
H3255	0.887	0.791	–	0.769	0.926	0.346	0.273	0.341	0.727	0.303	0.655	0.679	0.662	0.63	0.741	0.687	0.639	–	0.749	0.64
NCI-H2126	0.471	0.773	0.777	0.784	0.798	0.581	0.599	–	0.639	0.61	0.688	0.817	0.726	0.735	0.806	0.534	0.594	0.568	0.589	0.578
LC-2-ad	0.724	0.806	0.767	0.682	0.522	0.509	0.74	0.531	0.589	0.613	0.846	0.866	0.916	0.883	1.01	0.924	0.948	0.92	0.761	0.48
SW 1573	0.757	0.844	0.961	0.898	0.906	0.603	0.437	0.667	0.456	0.595	0.759	0.792	0.677	0.622	0.736	0.57	0.631	0.588	0.516	0.436
EBC-1	–	–	–	–	–	–	–	–	–	–	0.876	0.963	0.958	0.839	0.894	–	–	–	–	–
HCC-15	0.913	0.893	0.861	0.799	0.824	0.559	0.581	0.592	0.663	0.612	0.797	0.938	0.875	0.849	0.885	0.417	0.373	0.36	0.356	0.314
NCI-H1650	0.655	0.643	0.519	0.586	0.543	0.298	0.29	0.284	0.338	0.314	–	–	–	–	–	0.656	0.615	0.391	0.643	0.691
COR-L 105	0.847	1.05	0.734	0.839	0.89	0.353	0.334	0.341	0.358	0.279	0.771	1.08	0.78	0.973	0.938	0.422	0.377	0.4	0.405	0.481
NCI-H650	0.412	0.489	0.458	0.721	0.414	0.442	0.344	0.373	0.517	0.455	1.06	1.28	1.12	1.14	1.08	0.923	0.998	1.16	0.984	0.876
LXF-289	0.755	0.765	0.659	0.738	0.756	0.217	0.125	0.237	0.301	0.182	1.01	1.02	0.976	1.06	0.994	0.735	0.654	0.659	0.719	0.695
NCI-H1703	–	–	–	–	–	–	–	–	–	–	0.313	0.347	0.333	0.392	0.306	–	–	–	–	–
SK-MES-1	1.06	1.27	1.16	1.11	1.16	0.361	0.339	0.343	0.365	0.361	0.817	0.955	0.844	0.79	0.877	0.605	0.666	0.615	0.535	0.533
